Test results published in patent US20100137419A1, “ANTI-CANCER AGENT” (WAN STATION CO., LTD., priority 2006, published 2010).

Columns and labels:
[1] = test system: mouse malignant melanoma cell line (B16); experiment: Examination of anti-cancer action 2 (with electroporation), cell survival rate with Tetra Color One; type: cell-based; conditions: DMSO 0.1%
Experimental: (§1) Subsequently, the cell line contained in each of the samples A0 to A5 was cultured in a CO2 incubator for 24 hours. The temperature in the CO2 incubator was set at 37.0° C., and the concentration of CO2 was set at 5.0%. Thereafter, 10 μl of a cell proliferation test reagent (manufactured by Seikagaku Corp.; product name: Tetra Color One) was added to each sample, and they were reacted in a CO2 incubator for 2 hours. Thereafter, the absorbance at a wavelength of 450 nm (control wavelength: 600 nm) was measured using a microplate reader (manufactured by Bio-Rad Laboratories, Inc.), so as to measure the survival rate of the cell line. The survival rate was measured at time points of 24, 48, and 72 hours after the reaction with the cell proliferation test reagent.
Thereafter, a DC pulse of 30 V was applied to the electrodes of each cuvette 10 times, so as to perform an electroporation operation.
Subsequently, the cell line contained in the samples D0 to D2 were cultured under the same conditions as those described in the “determination of solvent concentration” above, and the cell proliferation test reagent was reacted therewith. Then, the survival rate of the cells was measured at 0, 24, 48, and 72 hours after the reaction.

[2] = heat stability of the rotaxane compound; type: physicochemical
[3] = test system: mouse malignant melanoma cell line (B16); experiment: Examination of anti-cancer action 1 (without electroporation), cell survival rate with Tetra Color One; type: cell-based; conditions: 10 and 100 nM, DMSO 0.1%, without electroporation, 0, 24, 48, 72 hours (FIG. 3)
Experimental: as §1
Subsequently, the cell line contained in the samples C0 to C2 were cultured under the same conditions as those described in the “determination of solvent concentration” above, and the cell proliferation test reagent was reacted therewith. Then, the survival rate of the cells was measured at 0, 24, 48, and 72 hours after the reaction.

[2][bis (2-(3,5-dimethylphenylcarbonyloxy)ethyl) ammonium trifluoromethanesulfonate]-[dibenzo-24-crown-8] rotaxane
survival rate / proliferation of cancer cells ([1]; 10 and 100 nM, electroporation 30 V DC pulse 10 times, 0, 24, 48, 72 hours (FIG. 4)): suppress the proliferation of cancer cells became significant | survival rate / number of cancer cells over time ([1]; sample D2: 100 nM, electroporation 30 V, 0-72 hours (FIG. 4)): cancer cells were reduced over time | heat stability [2]: relatively heat-stable | survival rate / proliferation of cancer cells [3]: has an effect of retarding the proliferation of cancer cells
